Measured values from ChEMBL document CHEMBL1671659, “In vitro and in vivo properties of dihydrophthalazine antifolates, a novel family of antibacterial drugs” (Antimicrob Agents Chemother, 2009).
≈ marks a conversion by molar mass, not a printed value. Calls of active or inactive are those of the source. The calls are words filed in the database; no cut-off is given here.

Assays:
[1] = Inhibition of trimethoprim-resistant Staphylococcus aureus Type S1 dihydrofolate reductase
Dihydrofolate reductase = Dihydrofolate reductase (Staphylococcus aureus, UniProt P0A017, F99Y); assay: Inhibition of trimethoprim-resistant Staphylococcus aureus DfrB type dihydrofolate reductase F98Y mutant
[2] = Inhibition of trimethoprim-sensitive Staphylococcus aureus DfrB type dihydrofolate reductase
[3] = tested on: Staphylococcus epidermidis; assay: Antibacterial activity against methicillin, vancomycin, trimethoprim-sensitive Staphylococcus epidermidis ATCC 14990 harboring dfrC gene; type: functional
Staphylococcus aureus [4] = assay: Antibacterial activity against vancomycin, trimethoprim-sensitive and methicillin-resistant Staphylococcus aureus ATCC 43300 harboring dfrB gene; type: functional
[5] = tested on: Staphylococcus epidermidis; assay: Antibacterial activity against methicillin, vancomycin-sensitive and trimethoprim-resistant Staphylococcus epidermidis BAS000635 harboring dfrC and dfrA genes; type: functional
Staphylococcus aureus [6] = assay: Antibacterial activity against methicillin, vancomycin, trimethoprim-sensitive Staphylococcus aureus ATCC 29213 harboring dfrB gene; type: functional
Staphylococcus aureus [7] = assay: Antibacterial activity against vancomycin, trimethoprim, methicillin-resistant Staphylococcus aureus VRS1 harboring dfrA and dfrB genes; type: functional
[8] = tested on: Staphylococcus epidermidis; assay: Antibacterial activity against methicillin-sensitive dfrC-positive and dfrA, dfrD-negative Staphylococcus epidermidis; type: functional
Staphylococcus aureus [9] = assay: Antibacterial activity against trimethoprim-resistant Staphylococcus aureus BAS003908; type: functional
Enterococcus faecalis [10] = assay: Antibacterial activity against Enterococcus faecalis; type: functional
Staphylococcus aureus [11] = assay: Antibacterial activity against methicillin-resistant dfrB, dfrA-positive and dfrA within SCCmec-N1, dfrG-negative Staphylococcus aureus; type: functional
Staphylococcus aureus [12] = assay: Antibacterial activity against trimethoprim-resistant Staphylococcus aureus BAS003908 infected in NMRI mouse model of septicemia; type: functional
[13] = Tmax in NMRI mouse blood at 25 mg/kg administered through oral gavage measured after 7 hrs; type: ADME, organism-based; set-up: dose 25 mg/kg, route oral
Enterococcus faecalis [14] = assay: Antibacterial activity against Enterococcus faecalis in presence of 250 ug/ml thymidine; type: functional
[15] = tested on: Staphylococcus epidermidis; assay: Antibacterial activity against methicillin-sensitive dfrA, dfrD-negative Staphylococcus epidermidis harboring F98Y mutation in dfrC gene; type: functional
[16] = Oral bioavailability in NMRI mouse; type: ADME, organism-based; conditions: in vivo
Mus musculus [17] = assay: Hepatotoxicity in NMRI mouse assessed as single-cell necrosis at 400 mg/kg administered through oral gavage for 10 days; type: toxicity, organism-based; set-up: dose 400 mg/kg, route oral; conditions: in vivo, 240 h
Haemophilus influenzae [18] = assay: Antibacterial activity against Haemophilus influenzae; type: functional
Enterococcus faecium [19] = assay: Antibacterial activity against Enterococcus faecium in presence of 250 ug/ml thymidine; type: functional
Enterococcus faecium [20] = assay: Antibacterial activity against vancomycin-sensitive dfrE, dfrF-negative and folA-positive Enterococcus faecium; type: functional
[21] = AUC (0 to t) in NMRI mouse blood at 25 mg/kg administered through oral gavage after 7 hrs; type: ADME, organism-based; set-up: time < 7 hr, dose 25 mg/kg, route oral
Staphylococcus aureus [22] = assay: Antibacterial activity against trimethoprim-sensitive Staphylococcus aureus ATCC 29213; type: functional
Staphylococcus aureus [23] = assay: Antibacterial activity against methicillin-resistant dfrB, dfrG-positive and dfrA-negative Staphylococcus aureus; type: functional
HeLa = assay: Cytotoxicity against human HeLa cells; type: cell-based
Streptococcus pneumoniae [24] = assay: Antibacterial activity against Streptococcus pneumoniae in presence of 250 ug/ml thymidine; type: functional
Mus musculus [25] = assay: Toxicity in po dosed NMRI mouse; type: organism-based; conditions: in vivo
Mus musculus [26] = assay: Hepatotoxicity in NMRI mouse assessed as single-cell necrosis at 400 mg/kg administered through oral gavage for 5 days; type: toxicity, organism-based; set-up: dose 400 mg/kg, route oral; conditions: in vivo, 120 h
Enterococcus faecium [27] = assay: Antibacterial activity against Enterococcus faecium in presence of 50 ug/ml thymidine; type: functional
Enterococcus faecalis [28] = assay: Antibacterial activity against vancomycin-sensitive dfrE, dfrF-positive and folA-negative Enterococcus faecalis; type: functional
Mus musculus [29] = assay: Hepatotoxicity in NMRI mouse assessed as increase in liver weight at 400 mg/kg administered through oral gavage for 10 days; type: toxicity, organism-based; set-up: dose 400 mg/kg, route oral; conditions: in vivo, 240 h
[30] = tested on: Staphylococcus epidermidis; assay: Antibacterial activity against methicillin-resistant dfrC, dfrA-positive and dfrA within SCCmec-N1, dfrD-negative Staphylococcus epidermidis; type: functional
Staphylococcus aureus [31] = assay: Antibacterial activity against methicillin-resistant dfrA within SCCmec-N1, dfrA and dfrG -negative Staphylococcus aureus harboring F98Y mutation in dfrB gene; type: functional
Haemophilus influenzae [32] = assay: Antibacterial activity against Haemophilus influenzae in presence of 50 ug/ml thymidine
[33] = tested on: Staphylococcus epidermidis; assay: Antibacterial activity against methicillin-sensitive dfrC, dfrA-positive and dfrD-negative Staphylococcus epidermidis; type: functional
Enterococcus faecalis [34] = assay: Antibacterial activity against Enterococcus faecalis in presence of 50 ug/ml thymidine; type: functional
Staphylococcus aureus [35] = assay: Antibacterial activity against trimethoprim-sensitive Staphylococcus aureus ATCC 29213 infected in NMRI mouse model of septicemia; type: functional
Enterococcus faecalis [36] = assay: Antibacterial activity against vancomycin-sensitive folA, dfrF-negative Enterococcus faecalis harboring A5T, K88N, F102Y mutation in dfrE gene; type: functional
Mus musculus [37] = assay: Hepatotoxicity in NMRI mouse assessed as inflammatory infiltrates at 400 mg/kg administered through oral gavage for 5 days; type: toxicity, organism-based; set-up: dose 400 mg/kg, route oral; conditions: in vivo, 120 h
Streptococcus pneumoniae [38] = assay: Antibacterial activity against Streptococcus pneumoniae
Staphylococcus aureus [39] = assay: Antibacterial activity against trimethoprim-sensitive Staphylococcus aureus ATCC 29213 infected in NMRI mouse model of septicemia assessed as succumbed to infections at 1.6 mg/kg, iv; type: functional, organism-based; set-up: dose 1.6 mg/kg
Mus musculus [40] = assay: Hepatotoxicity in NMRI mouse assessed as inflammatory infiltrates at 400 mg/kg administered through oral gavage for 10 days; type: toxicity, organism-based; set-up: dose 400 mg/kg, route oral; conditions: in vivo, 240 h
Mus musculus [41] = assay: Hepatotoxicity in NMRI mouse assessed as increase in mitosis at 400 mg/kg administered through oral gavage for 5 days; type: toxicity, organism-based; set-up: dose 400 mg/kg, route oral; conditions: in vivo, 120 h
Haemophilus influenzae [42] = assay: Antibacterial activity against Haemophilus influenzae in presence of 250 ug/ml thymidine; type: functional
Enterococcus faecium [43] = assay: Antibacterial activity against Enterococcus faecium; type: functional
[44] = Cmax in NMRI mouse blood at 25 mg/kg administered through oral gavage measured after 7 hrs; type: ADME, organism-based; set-up: dose 25 mg/kg, route oral
Staphylococcus aureus [45] = assay: Antibacterial activity against trimethoprim-sensitive Staphylococcus aureus ATCC 29213 infected in NMRI mouse model of septicemia assessed as complete protection from infections at 3.1 mg/kg, iv; type: functional, organism-based; set-up: dose 3.1 mg/kg
[46] = tested on: Staphylococcus epidermidis; assay: Antibacterial activity against methicillin-sensitive dfrA-positive and dfrD-negative Staphylococcus epidermidis harboring F98Y mutation in dfrC gene; type: functional
Mycobacterium avium = assay: Antibacterial activity against Mycobacterium avium assessed as inhibition of bacterial growth at <=4 ug/ml; type: functional; set-up: scale not given: the % may be the effect or the level left
Mus musculus [47] = assay: Hepatotoxicity in NMRI mouse assessed as increase in mitosis at 400 mg/kg administered through oral gavage for 10 days; type: toxicity, organism-based; set-up: dose 400 mg/kg, route oral; conditions: in vivo, 240 h
Streptococcus pneumoniae [48] = assay: Antibacterial activity against Streptococcus pneumoniae in presence of 50 ug/ml thymidine; type: functional
Enterococcus faecium [49] = assay: Antibacterial activity against vancomycin-resistant dfrE, dfrF-negative and folA-positive Enterococcus faecium; type: functional
Staphylococcus aureus [50] = assay: Antibacterial activity against methicillin-sensitive dfrB-positive abd dfrA, dfrG-negative Staphylococcus aureus; type: functional
Mus musculus [51] = assay: Hepatotoxicity in NMRI mouse assessed as increase in liver weight at 400 mg/kg administered through oral gavage for 5 days; type: toxicity, organism-based; set-up: dose 400 mg/kg, route oral; conditions: in vivo, 120 h

COc1cc(Cc2cnc(N)nc2N)cc(/C=C/C(=O)N2N=Cc3ccccc3[C@H]2c2cnc(N3CCOCC3)nc2)c1OC
IC50 [1]: 2.59 µM | IC50 (Dihydrofolate reductase): 5.7 µM | IC50 [2]: 0.0468 µM | MIC [3]: 1 mg/L (≈ 1.65 µM) | MIC (Staphylococcus aureus [4]): 2 mg/L (≈ 3.29 µM) | MIC [5]: > 8 mg/L | MIC (Staphylococcus aureus [6]): 4 mg/L (≈ 6.58 µM) | MIC (Staphylococcus aureus [7]): > 8 mg/L

COc1cc(Cc2cnc(N)nc2N)cc(/C=C/C(=O)N2N=Cc3ccccc3[C@H]2c2cnc(N(C)C)nc2)c1OC
IC50 [1]: 1.01 µM | IC50 (Dihydrofolate reductase): 2.92 µM | IC50 [2]: 0.0376 µM | MIC [3]: 0.5 mg/L (≈ 0.884 µM) | MIC (Staphylococcus aureus [4]): 2 mg/L (≈ 3.54 µM) | MIC [5]: > 8 mg/L | MIC (Staphylococcus aureus [6]): 2 mg/L (≈ 3.54 µM) | MIC (Staphylococcus aureus [7]): > 8 mg/L

COc1cc(Cc2cnc(N)nc2N)cc(/C=C/C(=O)N2N=Cc3ccccc3C2c2cnc(N3CCOCC3)nc2)c1OC (centres undefined)
MIC [8]: < 0.25 mg/L | MIC (Staphylococcus aureus [9]): 1 mg/L (≈ 1.65 µM) | MIC (Enterococcus faecalis [10]): 0.5 mg/L (≈ 0.823 µM) | MIC (Staphylococcus aureus [11]): 1 mg/L (≈ 1.65 µM) | MIC (Staphylococcus aureus [11]; Staphylococcus aureus, read-out: MIC): 0.5 mg/L (≈ 0.823 µM) | ED50 (Staphylococcus aureus [12]): 1.6 mg/kg | IC50 [1]: 0.154 µM | Tmax [13]: 6 h | MIC (Enterococcus faecalis [14]): 2 mg/L | MIC [15]: 1 mg/L (≈ 1.65 µM) | bioavailability [16]: 29% | Activity (Mus musculus [17]): < 10% | MIC (Haemophilus influenzae [18]): > 128 mg/L | MIC (Enterococcus faecium [19]): > 128 mg/L | MIC (Enterococcus faecium [20]): ≤ 0.25 mg/L | AUC(0-t) at 7 h [21]: 5.59 µg·h/mL | MIC (Staphylococcus aureus [22]): 0.5 mg/L (≈ 0.823 µM) | MIC (Staphylococcus aureus [23]): 64 mg/L (≈ 105 µM) | IC50 (HeLa): 12 µM | IC50 (Dihydrofolate reductase): 0.124 µM | MIC (Streptococcus pneumoniae [24]): ≥ 128 mg/L | Activity (Mus musculus [25]): 400 mg/kg | Activity (Mus musculus [26]): < 10% | MIC (Enterococcus faecium [27]): ≥ 128 mg/L | MIC (Enterococcus faecalis [28]): > 128 mg/L | Activity (Mus musculus [29]): < 10% | MIC [30]: 1 mg/L (≈ 1.65 µM) | MIC (Staphylococcus aureus [31]): 1 mg/L (≈ 1.65 µM) | MIC (Haemophilus influenzae [32]): ≥ 128 mg/L | MIC [33]: 1 mg/L (≈ 1.65 µM) | MIC (Enterococcus faecalis [34]): ≤ 0.25 mg/L | ED50 (Staphylococcus aureus [35]): 1.6 mg/kg | MIC (Enterococcus faecalis [36]): 1 mg/L (≈ 1.65 µM) | Activity (Mus musculus [37]): < 10% | MIC (Streptococcus pneumoniae [38]): ≥ 128 mg/L | IC50 [2]: 0.0122 µM | Activity (Staphylococcus aureus [39]): inactive | Activity (Mus musculus [40]): < 10% | MIC [3]: 0.25 mg/L (≈ 0.411 µM) | Activity (Mus musculus [41]): < 10% | MIC (Haemophilus influenzae [42]): ≥ 128 mg/L | MIC (Staphylococcus aureus [4]): 0.5 mg/L (≈ 0.823 µM) | MIC [5]: 2 mg/L (≈ 3.29 µM) | MIC (Enterococcus faecium [43]): 2 mg/L (≈ 3.29 µM) | Cmax [44]: 0.99 µg/mL | Activity (Staphylococcus aureus [45]): Active | MIC [46]: 1 mg/L (≈ 1.65 µM) | MIC (Staphylococcus aureus [6]): 1 mg/L (≈ 1.65 µM) | Activity (Mycobacterium avium): 77% | Activity (Mus musculus [47]): < 10% | MIC (Staphylococcus aureus [7]): 2 mg/L (≈ 3.29 µM) | MIC (Streptococcus pneumoniae [48]): ≥ 128 mg/L | MIC (Enterococcus faecium [49]): 2 mg/L (≈ 3.29 µM) | MIC (Staphylococcus aureus [50]): 0.5 mg/L (≈ 0.823 µM) | Activity (Mus musculus [51]): < 10%

COc1cc(Cc2cnc(N)nc2N)cc(/C=C/C(=O)N2N=Cc3ccccc3[C@@H]2c2cnc(N3CCOCC3)nc2)c1OC
IC50 [1]: 0.098 µM | IC50 (Dihydrofolate reductase): 0.0644 µM | IC50 [2]: 0.0089 µM | MIC [3]: 0.25 mg/L (≈ 0.411 µM) | MIC (Staphylococcus aureus [4]): 1 mg/L (≈ 1.65 µM) | MIC [5]: 2 mg/L (≈ 3.29 µM) | MIC (Staphylococcus aureus [6]): 1 mg/L (≈ 1.65 µM) | MIC (Staphylococcus aureus [7]): 2 mg/L (≈ 3.29 µM)
